Values quoted from earlier work, collected in patent US20190032079A1, “SYSTEMIC SYNTHESIS AND REGULATION OF L-DOPA” (MYODOPA LIMITED, priority 2015, published 2019).
Like-named read-outs stand apart in the source and are kept apart here.

Legend:
TH [1] = target: TH (Rattus norvegicus, UniProt P04177)
TH [2] = tested on: TH
THΔ32 = THΔ32 (Rattus norvegicus, UniProt P04177)
THΔ68 = THΔ68 (Rattus norvegicus, UniProt P04177)
[3] = intra-intestinal infusion; improved control of PD and dyskinesia
[4] = preincubation with stoichiometric amounts of dopamine

Chain of TH (Rattus norvegicus, UniProt P04177) (P04177 whole entry): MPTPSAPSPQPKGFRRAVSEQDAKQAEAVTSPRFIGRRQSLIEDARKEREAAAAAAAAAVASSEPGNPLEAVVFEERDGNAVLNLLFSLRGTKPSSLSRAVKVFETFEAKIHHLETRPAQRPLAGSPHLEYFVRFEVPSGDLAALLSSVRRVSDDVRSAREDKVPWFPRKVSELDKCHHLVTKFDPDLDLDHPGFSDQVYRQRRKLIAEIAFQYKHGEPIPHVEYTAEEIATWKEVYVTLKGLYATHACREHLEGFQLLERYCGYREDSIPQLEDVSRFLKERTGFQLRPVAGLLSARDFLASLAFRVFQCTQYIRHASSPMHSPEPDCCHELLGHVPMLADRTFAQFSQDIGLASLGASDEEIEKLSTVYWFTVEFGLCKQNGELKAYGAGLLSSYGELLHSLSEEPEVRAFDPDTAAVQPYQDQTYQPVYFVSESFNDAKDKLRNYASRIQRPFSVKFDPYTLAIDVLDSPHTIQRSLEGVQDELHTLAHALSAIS
Chain of THΔ32 (P04177 33-498 limits assumed, stated change not applied): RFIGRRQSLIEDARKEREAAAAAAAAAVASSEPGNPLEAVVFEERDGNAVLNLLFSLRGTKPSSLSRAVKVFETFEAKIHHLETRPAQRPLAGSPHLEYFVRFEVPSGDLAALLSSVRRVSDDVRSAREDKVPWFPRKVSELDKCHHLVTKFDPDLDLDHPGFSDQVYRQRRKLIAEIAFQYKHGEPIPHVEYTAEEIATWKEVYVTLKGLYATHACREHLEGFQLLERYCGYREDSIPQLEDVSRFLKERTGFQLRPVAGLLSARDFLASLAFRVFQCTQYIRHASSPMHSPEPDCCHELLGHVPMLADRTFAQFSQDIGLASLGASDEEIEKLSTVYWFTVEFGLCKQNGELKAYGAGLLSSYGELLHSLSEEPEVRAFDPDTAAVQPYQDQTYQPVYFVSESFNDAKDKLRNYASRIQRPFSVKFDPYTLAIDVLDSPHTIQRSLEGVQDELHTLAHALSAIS
Chain of THΔ68 (P04177 69-498 limits assumed, stated change not applied): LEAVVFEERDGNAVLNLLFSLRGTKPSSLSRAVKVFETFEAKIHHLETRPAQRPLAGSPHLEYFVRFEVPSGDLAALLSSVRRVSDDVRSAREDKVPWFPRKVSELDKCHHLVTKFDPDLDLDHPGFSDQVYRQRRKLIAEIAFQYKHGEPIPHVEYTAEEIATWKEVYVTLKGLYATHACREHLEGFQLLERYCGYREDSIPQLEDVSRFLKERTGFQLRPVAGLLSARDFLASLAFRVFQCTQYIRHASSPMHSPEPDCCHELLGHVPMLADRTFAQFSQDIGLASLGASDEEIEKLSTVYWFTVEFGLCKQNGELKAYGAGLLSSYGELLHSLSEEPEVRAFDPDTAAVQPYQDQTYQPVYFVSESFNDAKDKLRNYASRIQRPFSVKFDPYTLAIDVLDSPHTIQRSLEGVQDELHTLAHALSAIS

## N[C@@H](Cc1ccc(O)c(O)c1)C(=O)O [L-DOPA, L-3,4-dihydroxyphenylalanine]
other
  therapeutic range for plasma L-DOPA: 0.2 to 1.5 mg/L

## O=C(O)Cc1ccc(O)c(O)c1 [dihydroxyphenylacetate]
TH [1]; relative to DOPA
  binds less tightly than DOPA: 100 fold

## NCCc1ccc(O)c(O)c1 [dopamine]
TH [2]; Ser40-phosphorylated enzyme
  increase of TH activity on dissociation of dopamine from the low-affinity site: 9 fold
TH [2]; non-phosphorylated enzyme
  increase of TH activity on dissociation of dopamine from the low-affinity site: 12 fold
TH [2]; read-out: K(D), second low affinity dopamine-binding site, present in non-phosphorylated and Ser40-phosphorylated forms
  Kd: 0.09 µM
THΔ32
  dopamine release from the enzyme: not released
THΔ32; [4]
  inhibition by dopamine: 90%
TH [1]; relative to DOPA
  binds more tightly than DOPA: 1000 fold
TH [1]; ser40 phosphorylation
  decrease of DA affinity for TH when the enzyme is phosphorylated: 300 fold
THΔ68
  dopamine release from the enzyme: rapidly released
THΔ68; [4]
  inhibition by dopamine: not inhibited

## COC(=O)[C@@H](N)Cc1ccc(O)c(O)c1 [levodopa methyl ester]
[3]
  plasma levels of Levodopa: 3 to 4 µg/mL
